≈ marks a conversion by molar mass, not a printed value. Like-named read-outs stand apart in the source and are kept apart here.
Experiments:
E. coli, NIHJ = test: Antimicrobial activity MIC, standard method of Japanese Society of Chemotherapy; assay type: cell-based
Experimental: (§1) The antimicrobial activity of the compounds of the present invention is measured in accordance with the standard method designated by Japanese Society of Chemotherapy and MIC (microgram/ml) values are shown as its results in Table 1.

K. pneumoniae, Type I = test: as above; assay type: cell-based
Experimental: as §1

Pr. vulgalis, 08601 = test: as above; assay type: cell-based
Experimental: as §1

Ps. aeruginosa, 32104 = test: as above; assay type: cell-based
Experimental: as §1

Ps. aeruginosa, 32121 = test: as above; assay type: cell-based
Experimental: as §1

S. aureus, 209P = test: as above; assay type: cell-based
Experimental: as §1

S. aureus, 870307 = test: as above; assay type: cell-based
Experimental: as §1

S. epidermidis, 56500 = test: as above; assay type: cell-based
Experimental: as §1

S. flexneri, 2A 5503 = test: as above; assay type: cell-based
Experimental: as §1

S. maltophilia, IID-1275 = test: as above; assay type: cell-based
Experimental: as §1

Ser. marcescens, 10100 = test: as above; assay type: cell-based
Experimental: as §1

[1] = tested on: Str. faecalis, ATCC-19433; test: as above; assay type: cell-based
Experimental: as §1

Str. pneumoniae, J24 = test: as above; assay type: cell-based
Experimental: as §1

Str. pyogenes, G-36 = test: as above; assay type: cell-based
Experimental: as §1

Slc:ddY male mice = test: Single intravenous dosing toxicity test in mice; assay type: in vivo; conditions: single intravenous dose 150 mg/kg, six-week-old Slc:ddY male mice
Experimental: The single intravenous dosing toxicity test in mice using the invention compound was carried out in the following manner. The compound was dissolved in and diluted with 0.1 mol/l NaOH/physiological saline. After the diluted solution was sterilized by filtration through a 0.22 μm filter of Millex GS, the resulting sterilized solution was intravenously administered to six-week-old Slc:ddY male mice at an administration rate of 10 ml/kg or 0.2 ml/min as a single dose. Similar to Test 1, the compound obtained in Example 2 of Patent Document 2 was employed as a comparative compound.

[2] = Klebsiella pneumoniae, read-out: MIC
[3] = Pseudomonas aeruginosa, 32104, Ps. aeruginosa, read-out: MIC
[4] = Pseudomonas aeruginosa, 32121, Ps. aeruginosa, read-out: MIC
[5] = Staphylococcus aureus, read-out: MIC
[6] = Staphylococcus epidermidis, 56500, S. epidermidis, read-out: MIC
[7] = Stenotrophomonas maltophilia, IID1275, S. maltophilia, read-out: MIC
[8] = Serratia marcescens, 10100, Ser. marcescens, read-out: MIC
[9] = Enterococcus faecalis, ATCC19433, Str. faecalis, read-out: MIC
[10] = Streptococcus pneumoniae, J24, Str. pneumoniae, read-out: MIC
[11] = Escherichia coli, read-out: MIC
[12] = Staphylococcus aureus, 870307, S. aureus, read-out: MIC
[13] = Shigella flexneri, 2A5503, S. flexneri, read-out: MIC
[14] = Streptococcus pyogenes, G36, Str. pyogenes, read-out: MIC
[15] = Ps. aeruginosa, listed as Ex. 3

| Compound | MIC (K. pneumoniae, Type I; [2]) | MIC (Ps. aeruginosa, 32104; [3]) | MIC (Ps. aeruginosa, 32121; [4]) | MIC (S. aureus, 209P; [5]) | MIC (S. epidermidis, 56500; [6]) | MIC (S. maltophilia, IID-1275; [7]) | MIC (Ser. marcescens, 10100; [8]) | MIC [1, 9] | MIC (Str. pneumoniae, J24; [10]) | melting point | MIC (E. coli, NIHJ; [11]) | MIC (Pr. vulgalis, 08601; read-out: MIC) | MIC (S. aureus, 870307; [12]) | MIC (S. flexneri, 2A 5503; [13]) | MIC (Str. pyogenes, G-36; [14]) | further results |
| --- | --- | --- | --- | --- | --- | --- | --- | --- | --- | --- | --- | --- | --- | --- | --- | --- |
| C[C@H]1COc2c(N3CC(N)C(C(F)F)C3)c(F)cc3c(=O)c(C(=O)O)cn1c23 (single isomer, unassigned) [Example 2] | 0.05 µg/mL (≈ 0.126 µM) | 0.2 µg/mL (≈ 0.503 µM) | 0.05 µg/mL (≈ 0.126 µM) | 0.025 µg/mL (≈ 0.0629 µM) | 0.1 µg/mL (≈ 0.252 µM) | 0.2 µg/mL (≈ 0.503 µM) | 0.05 µg/mL (≈ 0.126 µM) | 0.39 µg/mL (≈ 0.981 µM) | 0.2 µg/mL (≈ 0.503 µM) | 247 to 252 °C | – | – | – | – | – | MIC (E. coli, NIHJ; listed as Ex. 2): ≦0.003 microgram/ml; MIC (Pr. vulgalis, 08601; listed as Ex. 2): 0.012 microgram/ml; MIC (S. aureus, 870307; S. aureus, listed as Ex. 2): 1.56 microgram/ml; MIC (S. flexneri, 2A 5503; S. flexneri, listed as Ex. 2): 0.012 microgram/ml; MIC (Str. pyogenes, G-36; Str. pyogenes, listed as Ex. 2): 0.2 microgram/ml |
| COc1c(N2C[C@H](CF)[C@H](N)C2)c(F)cc2c(=O)c(C(=O)O)cn(C3CC3)c12 [Comparative Compound, reference compound] | 0.025 µg/mL (≈ 0.0636 µM) | 0.2 µg/mL (≈ 0.508 µM) | 0.05 µg/mL (≈ 0.127 µM) | 0.012 µg/mL (≈ 0.0305 µM) | 0.05 µg/mL (≈ 0.127 µM) | 0.05 µg/mL (≈ 0.127 µM) | 0.05 µg/mL (≈ 0.127 µM) | 0.1 µg/mL (≈ 0.254 µM) | 0.025 µg/mL (≈ 0.0636 µM) | – | ≤ 0.003 µg/mL | 0.006 µg/mL (≈ 0.0153 µM) | 0.39 µg/mL (≈ 0.991 µM) | 0.006 µg/mL (≈ 0.0153 µM) | 0.1 µg/mL (≈ 0.254 µM) | Number of deaths/total number (Slc:ddY male mice; 150 mg/kg): 3/5; Number of deaths/total number (Slc:ddY male mice; listed as comparative compound, 150 mg/kg): three of five mice died |
| C[C@H]1COc2c(N3C[C@H](CF)[C@H](N)C3)c(F)cc3c(=O)c(C(=O)O)cn1c23 [Example 1, 10-[3-(S)-Amino-4-(S)-fluoromethylpyrrolidin-1-yl]-9-fluoro-2,3-dihydro-3-(S)-methyl-7-oxo-7H-pyridol-[1,2,3-de][1,4]benzoxazine-6-carboxylic acid] | 0.05 µg/mL (≈ 0.132 µM) | 0.1 µg/mL (≈ 0.264 µM) | 0.025 µg/mL (≈ 0.0659 µM) | 0.025 µg/mL (≈ 0.0659 µM) | 0.1 µg/mL (≈ 0.264 µM) | 0.39 µg/mL (≈ 1.03 µM) | 0.05 µg/mL (≈ 0.132 µM) | 0.2 µg/mL (≈ 0.527 µM) | 0.1 µg/mL (≈ 0.264 µM) | – | 0.006 µg/mL (≈ 0.0158 µM) | 0.012 µg/mL (≈ 0.0316 µM) | 1.56 µg/mL (≈ 4.11 µM) | 0.012 µg/mL (≈ 0.0316 µM) | 0.2 µg/mL (≈ 0.527 µM) | Number of deaths/total number (Slc:ddY male mice): 0/5 |
| O=C(O)c1cn(C2CC2)c2cc(N3CCNCC3)c(F)cc2c1=O [CPFX, ciprofloxacin, reference compound] | 0.025 µg/mL (≈ 0.0754 µM) | 0.005 µg/mL (≈ 0.0151 µM) | 0.025 µg/mL (≈ 0.0754 µM) | 0.1 µg/mL (≈ 0.302 µM) | 0.2 µg/mL (≈ 0.604 µM) | 0.78 µg/mL (≈ 2.35 µM) | 0.025 µg/mL (≈ 0.0754 µM) | 0.78 µg/mL (≈ 2.35 µM) | 0.1 µg/mL (≈ 0.302 µM) | – | ≤ 0.003 µg/mL | ≤ 0.003 µg/mL | 3.13 µg/mL (≈ 9.45 µM) | 0.006 µg/mL (≈ 0.0181 µM) | 1.56 µg/mL (≈ 4.71 µM) | – |
| C[C@H]1COc2c(N3CCN(C)CC3)c(F)cc3c(=O)c(C(=O)O)cn1c23 [LVFX, levofloxacin, reference compound] | 0.1 µg/mL (≈ 0.277 µM) | 0.2 µg/mL (≈ 0.553 µM) | 0.1 µg/mL (≈ 0.277 µM) | 0.2 µg/mL (≈ 0.553 µM) | 0.39 µg/mL (≈ 1.08 µM) | 0.39 µg/mL (≈ 1.08 µM) | 0.1 µg/mL (≈ 0.277 µM) | 0.78 µg/mL (≈ 2.16 µM) | 0.78 µg/mL (≈ 2.16 µM) | – | 0.12 µg/mL (≈ 0.332 µM) | 0.012 µg/mL (≈ 0.0332 µM) | > 6.25 µg/mL | 0.025 µg/mL (≈ 0.0692 µM) | 0.2 µg/mL (≈ 0.553 µM) | – |
| C[C@H]1COc2c(N3CC(N)C(C(F)F)C3)c(F)cc3c(=O)c(C(=O)O)cn1c23 (single isomer, unassigned) [Example 3] | – | – | – | – | – | – | – | – | – | 264 to 268 °C | – | – | – | – | – | MIC (E. coli, NIHJ; listed as Ex. 3): 0.012 microgram/ml; MIC (K. pneumoniae, Type I; listed as Ex. 3): 0.1 microgram/ml; MIC (Pr. vulgalis, 08601; listed as Ex. 3): 0.025 microgram/ml; MIC (Ps. aeruginosa, 32104; [15]): 0.39 microgram/ml; MIC (Ps. aeruginosa, 32121; [15]): 0.1 microgram/ml; MIC (S. aureus, 209P; listed as Ex. 3): 0.05 microgram/ml; MIC (S. aureus, 870307; S. aureus, listed as Ex. 3): 3.13 microgram/ml; MIC (S. epidermidis, 56500; S. epidermidis, listed as Ex. 3): 0.2 microgram/ml; MIC (S. flexneri, 2A 5503; S. flexneri, listed as Ex. 3): 0.025 microgram/ml; MIC (S. maltophilia, IID-1275; S. maltophilia, listed as Ex. 3): 0.39 microgram/ml; MIC (Ser. marcescens, 10100; Ser. marcescens, listed as Ex. 3): 0.1 microgram/ml; MIC ([1]; Str. faecalis, listed as Ex. 3): 0.78 microgram/ml; MIC (Str. pneumoniae, J24; Str. pneumoniae, listed as Ex. 3): 0.39 microgram/ml; MIC (Str. pyogenes, G-36; Str. pyogenes, listed as Ex. 3): 0.78 microgram/ml |
